Test results from patent US12702667B2, “Focal adhesion kinase inhibitor as a therapeutic agent in diabetes” (University of Pittsburgh—Of the Commonwealth System of …, priority 2017, dated 2026).
“Also recorded” adds a separate entry of the source.

Legend:
[1] = tested on: STZ-treated E1aCreERT2; R26^Tomato mice; experiment: Induced diabetes mouse model (streptozotocin), blood glucose and islet immunostaining after FAKi treatment; format: in vivo; conditions: for acinar-derived, insulin-producing cells among beta cells that survived STZ treatment: 7 weeks after STZ treatment and 3 weeks after FAKi treatment
Description: (§1) FAKi treatment: FAKi (PF562271; 50 mg/kg) was given orally to mice twice a day for 3 weeks.
E1aCreERT2; R26^Tomato mice were treated with streptozotocin (STZ), a widely used compound that kills β-cells and, thus, induces diabetes in mice. […] Thus, in the DMSO-treated cohort, recovery was detected in 3/10 mice. […]
The mice were treated for two additional weeks following blood glucose normalization. The bar embedded in the graph of FIG. 5 indicates the duration of FAKi treatment. […] FAKi (50 mg/kg) was given orally to mice twice a day for 3 weeks.

pancreatic acinar cells = experiment: Acinar lineage tracing (tomato-red label, immunofluorescence) in E1aCreERT2;R26-CAG^Tomato mice treated with FAKi; format: in vivo
Description: Rosa26^CAGTomato (B6.Cg-Gt(Rosa)26Sortm9(CAG-tdTomato)Hze) (Madisen et al., 2010), FAK^fl/fl (Cai et al., 2012), and wild type C57bl/6 mice were purchased from The Jackson Laboratory (Bar Harbor, ME). PdxCre (Criscimanna et al., 2011; Hingorani et al., 2003) mice were obtained from the Mouse Models of Human Cancer Consortium. The E1aCreERT2 strain (Criscimanna et al., 2014; Criscimanna et al., 2011) was generated as previously described (Ji, B. et al., Robust acinar cell transgene expression of CreErT via BAC recombineering, Genesis, 46, 390-395et al (2008)). The FAK-floxed strain (B6; 129X1-Ptk2tm1Lfr/Mmucd) was obtained from the Mutant Mouse Regional Resource Centers (MMRRC).
Immunofluorescence Analysis: Tissue processing, immunostaining, and quantification analysis were performed as previously described (Criscimanna et al., 2011; incorporated by reference in its entirety herein). Imaging was performed using either ZEISS Axiolmager.Z1 or ZEISS LSM 710 microscopes.
Tamoxifen treatment: E1aCreERT;R26-CAG^Tomato mice were injected intraperitoneally with 2 mg tamoxifen on two consecutive days.
as §1
Cre-recombinase activity was specifically targeted to the pancreatic acinar cells and their potential progenies. […] The mouse strains are E1aCreERT2;R26-CAG^Tomato, created by crossing the E1aCreERT2 into R26^Tomato mice. Pancreatic acinar cells are exclusively tomato-positive. Mice were treated with PF562271 FAKi. The indicated area in FIG. 2B highlights tomato-negative endocrine islet of Langerhans.

CN(c1ncccc1CNc1nc(Nc2ccc3c(c2)CC(=O)N3)ncc1C(F)(F)F)S(C)(=O)=O.O=S(=O)(O)c1ccccc1 [PF562271]
acinar-derived, insulin-producing cells among beta cells that survived STZ treatment [1]: could be detected among pre-existing beta-cells | acinar-derived, insulin-producing cells among beta cells that survived STZ treatment ([1]; listed as FAKi): could be detected among pre-existing beta cells | mice whose blood glucose levels decreased to normal levels ([1]; STZ-treated mice, 50 mg/kg orally twice a day for 3 weeks, DMSO cohort recovery 3/10): 9/10 | blood glucose after FAKi treatment ceased ([1]; STZ-treated mice, after 3 weeks of 50 mg/kg orally twice a day): remained at normal levels up to a month | blood glucose ([1]; STZ-treated mice, one week after FAKi treatment (mice treated for 3 weeks)): decrease in blood glucose to normal levels | conversion of acinar cells into insulin-producing cells (tomato-red labeled insulin-expressing cells) (pancreatic acinar cells; 50 mg/kg orally twice a day for three weeks): induces conversion of acinar cells into insulin-producing cells | Glut2 expression of the acinar-derived insulin-positive cells (pancreatic acinar cells; FAKi treated): also expressed Glut2 | amylase expression of the acinar-derived insulin-positive cells (pancreatic acinar cells; treatment for three weeks): no longer express amylase; also recorded: no longer expressed amylase | location of the acinar-derived insulin-positive cells (pancreatic acinar cells; treatment for three weeks): embedded within preexisting islets
